Experimental data: article PMC7356228, “Alvaxanthone, a Thymidylate Synthase Inhibitor with Nematocidal and Tumoricidal Activities” (Molecules, 2020)

Key:
[1] = Cytotoxicity, neutral red uptake (NR) assay; assay type: cell-based, human; conditions: human, BJ normal skin fibroblasts; NR assay, 40 µM, 48 h, fibroblasts
Protocol: (§1) Biological effect of alvaxanthone and rheediaxanthone B on normal (BJ) and cancer cells (U-118 MG and SCC-15) was estimated using two viability assays, the neutral red uptake (NR) and tetrazolium salts reduction (XTT) assays.
(§2) Human glioblastoma cells U-118 MG (ATCC® HTB-15), human squamous carcinoma cells SCC-15 (ATCC® CRL-1623), and normal human skin fibroblasts (ATCC® CRL-2522) were grown, their morphology checked, and number and viability estimated as earlier presented.
(§3) Influence of selected compounds on cells was tested by performing the cytotoxicity (NR and XTT) assays, proliferation assay, cell adhesion assay, cell migration assay, determination of intracellular ATP level, and apoptosis assay as previously reported.

[2] = system: BJ normal human skin fibroblasts; test: Cytotoxicity, neutral red uptake (NR) assay; assay type: cell-based; conditions: Homo sapiens, Skin fibroblast; neutral red assay, BJ; read-out: IC50
Protocol: as §1, §2, §3

[3] = system: normal human gingival fibroblasts (HGF); design: method as in Hou et al. [41]; conditions: 24 h incubation; ref Hou et al. [41]; cited from earlier work
[4] = system: caspases 3/7 in BJ, U-118 MG, and SCC-15 cells; test: Apo-ONE Homogenous Caspase-3/7 Assay; assay type: cell-based, human; conditions: 48 h, 5–40 µM, span over the three cell lines
Protocol: Figure 4 Changes of caspase-3/7 activities and intracellular ATP level in BJ, U-118 MG, and SCC-15 cells after 48-h incubation with 5–40 µM alvaxanthone or rheediaxanthone B. Median results are presented of three independent experiments, each performed in triplicate. The whiskers are lower (25%) and upper (75%) quartile ranges.
The Apo-ONE® Homogenous Caspase-3/7 Assay provides a measurement of the executioner caspases 3/7 activation, characteristic for apoptosis induced via both the intrinsic and extrinsic pathway. It was used to determine apoptosis induction in cells by alvaxanthone and rheediaxanthone B. In each of the three cell lines, compared to the respective non-treated control, treatment with each of the two compounds for 48 h led to a significant activation of the caspases 3/7 (by 2- to 10-fold for alvaxanthone and 8- to 18-fold for rheediaxanthone B), the effect being stronger in cancer than normal cells (Figure 4).
as §3

[5] = system: U-118 MG cells; test: Cell adhesion, crystal violet assay; assay type: cell-based, human; conditions: 48-h treatment
Protocol: (§4) Cancer metastasis, resulting from an impairment of adhesion between cancer cells and the extracellular matrix may cause cell migration from a primary tumor into distant parts of an organism. The cristal violet assay was used to examine alvaxanthone and rheediaxanthone B ability to influence cellular adhesion.
(§5) Figure 3 Influence of alvaxanthone or rheediaxanthone B on BJ, U-118 MG, and SCC-15 cells adhesion after 48-h treatment. The crystal violet assay was used. Results are medians of triplicate assays of three independent experiments expressed as a % of non-treated controls. The whiskers are lower (25%) and upper (75%) quartile ranges. * p ≤ 0.05, Kruskal–Wallis test (against non-treated control).
as §3

[6] = system: SCC-15 cells; test: Cell adhesion, crystal violet assay; assay type: cell-based, human; conditions: 48-h treatment
Protocol: as §4, §5, §3

[7] = system: BJ cells; test: Cell adhesion, crystal violet assay; assay type: cell-based, human; conditions: 48-h treatment
Protocol: as §4, §5, §3

[8] = system: human oral squamous carcinoma cells (HSC-2 cell line); design: method as in Hou et al. [41]; conditions: 24 h incubation; ref Hou et al. [41]; cited from earlier work

C=CC(C)(C)c1c(O)cc2oc3c(O)c(O)cc(CC=C(C)C)c3c(=O)c2c1O [Alvaxanthone (15), Alvaxanthone]
viability at 48 h, 40 µM [1]: 35%
IC50 [2]: 15.8 µM
IC50 [3]: 25 µM
activation of the caspases 3/7 compared to non-treated control [4]: 2- to 10 fold
concentration at which reduction of adhesion is significant/apparent [5]: 40 µM
concentration at which reduction of adhesion is significant/apparent [6]: 20 µM
concentration at which reduction of adhesion is significant/apparent [7]: 20 µM
IC50 [8]: 22 µM
